Data: patent US20240132484A1, “BROAD SPECTRUM ANTIVIRAL COMPOUNDS TARGETING THE SKI COMPLEX” (priority 2020, published 2024)
Where “and” joins values, the source holds several entries; their conditions need not be identical. Equal values may be shown once. Entries after “also recorded” stand apart in the source; their conditions may differ. Read-outs that look alike come from different tables or passages of the source.

Tests used:
[1] = system: Influenza virus; experiment: organism not typed; type: cell-based, influenza A virus; conditions: for Flu titer (pfu/ml) / Influenza virus titer, 10 μM / Influenza virus titer, 50 μM: plaque assay; for Avg PFU/ml: average of first and second experiment; for Influenza virus titer, 10 μM / Influenza virus titer, 50 μM: upper part of table (FIG. 5 data)
[2] = system: SARS2; type: cell-based, SARS-CoV-2; conditions: for Infection Data, Average, Mean percentage infection relative to DMSO control: Average of Exp 1 (SMW491) and Exp 2 (SMW492); for Infection Data, Percentage Infection Relative to Appropriate DMSO Control: single well, avg background subtraction; for Percentage Inhibition Average 1 μM / Screening data (Relative infection to DMSO controls) Average 1 μM: SARS2, 1 μM; for Screening data (Relative infection to DMSO controls) Average 1 μM / Screening data (Relative infection to DMSO controls) Average 5 μM / Screening data (Relative infection to DMSO controls) Average 10 μM / Screening data (Relative infection to DMSO controls) Average 25 μM / Screening data (Relative infection to DMSO controls) Average 50 μM / Average (relative infection to DMSO over the 5 tested concentrations): 100=DMSO control; for Percentage Inhibition Average 5 μM / Screening data (Relative infection to DMSO controls) Average 5 μM: SARS2, 5 μM; for Percentage Inhibition Average 10 μM / Screening data (Relative infection to DMSO controls) Average 10 μM: SARS2, 10 μM; for Percentage Inhibition Average 25 μM / Screening data (Relative infection to DMSO controls) Average 25 μM: SARS2, 25 μM; for Percentage Inhibition Average 50 μM / Screening data (Relative infection to DMSO controls) Average 50 μM: SARS2, 50 μM; for Average (relative infection to DMSO over the 5 tested concentrations): SARS2, average over 1 to 50 uM
[3] = system: cells (nuclei count); conditions: for Relative cell count to DMSO controls, Average 1 μM / Relative cell count to DMSO controls, Average 5 μM / Relative cell count to DMSO controls, Average 10 μM / Relative cell count to DMSO controls, Average 25 μM / Relative cell count to DMSO controls, Average 50 μM: toxicity data, 100=DMSO control; for Toxicity Data, Average, Mean percentage relative to DMSO control: Average of Exp 1 (SMW491) and Exp 2 (SMW492); for Toxicity Data, Percentage Relative to Appropriate DMSO Control: single well; for Relative cell count to DMSO controls, Average (for correlation analysis): average value over the 5 tested concentrations (1 to 50 uM)

COCCO[C@H]1[C@H](NC(=O)C(C)C)c2ccccc2C12CCN(C(=O)Cn1nc(C)cc1C)CC2 (relative stereo) [Compound 27046321, N-[(2R*,3R*)-1′-[(3,5-dimethyl-1H-pyrazol-1-yl)acetyl]-2-(2-methoxyethoxy)-2,3-dihydrospiro[indene-1,4′-piperidin]-3-yl]-2-methylpropanamide]
Flu titer (pfu/ml) ([1]; 1 μM compound, A549 cells): 110000 pfu/ml
Flu titer (pfu/ml) ([1]; 10 μM compound, A549 cells): 74000 pfu/ml
Flu titer (pfu/ml) ([1]; 50 μM compound, A549 cells): 87000 pfu/ml

CCCCC(=O)Nc1cccc(NC(=O)COc2ccc(C3CCCCC3)cc2)c1 [Compound 7973169, N-(3-{[2-(4-cyclohexylphenoxy)acetyl]amino}phenyl)pentanamide]
Flu titer (pfu/ml) ([1]; 1 μM compound, A549 cells): 101000 pfu/ml
Flu titer (pfu/ml) ([1]; 10 μM compound, A549 cells): 66000 pfu/ml
Flu titer (pfu/ml) ([1]; 50 μM compound, A549 cells): 110000 pfu/ml

COc1ccc(CNCCCn2ccnc2)c(OCC(O)CN2CCN(C)CC2)c1 (stereo not shown) [Compound 18-15]
first experiment ([1]; 10 μM screen): 16000 PFU/ml
second experiment ([1]; 10 μM screen): 8000 PFU/ml
Avg PFU/ml ([1]; 10 μM screen): 12000 PFU/ml
Influenza virus titer, 10 μM ([1]; 10 μM): 36000 PFU/virus/ml
first experiment PFU/ml ([1]; 50 μM screen): 70000 PFU/ml
second experiment PFU/ml ([1]; 50 μM screen): 1000 PFU/ml
Avg PFU/ml ([1]; 50 μM screen): 35500 PFU/ml
Influenza virus titer, 50 μM [1]: 30000 PFU/virus/ml

COc1ccc(CNCCc2ccccc2F)c(OCC(O)CN2CCN(C)CC2)c1 (stereo not shown) [UMBCADD-0018, 1-[2-({[2-(2-fluorophenyl)ethyl]amino}methyl)-5-methoxyphenoxy]-3-(4-methyl-1-piperazinyl)-2-propanol]
inhibition of Influenza virus replication ([1]; 10 μM, A549 cells): over 20 fold
antiviral activity against IAV infection ([1]; screening, A549 cells): effective at 50 μM, 10 μM and 1 μM

COc1ccc(CNC2CCCCC2)c(OCC(O)CN2CCN(C)CC2)c1 (stereo not shown) [Compound 18-10]
first experiment ([1]; 10 μM screen): 40000 PFU/ml
second experiment ([1]; 10 μM screen): 2600 PFU/ml
Avg PFU/ml ([1]; 10 μM screen): 21300 PFU/ml
Influenza virus titer, 10 μM ([1]; 10 μM): 40000 PFU/virus/ml
first experiment PFU/ml ([1]; 50 μM screen): 16000 PFU/ml
second experiment PFU/ml ([1]; 50 μM screen): 1900 PFU/ml
Avg PFU/ml ([1]; 50 μM screen): 8950 PFU/ml
Influenza virus titer, 50 μM [1]: 16000 PFU/virus/ml

COc1ccc(CNCCc2ccccc2F)c(OCC(O)CN2CCN(C)CC2)c1 (stereo not shown) [Compound 18-lead, 1-[2-({[2-(2-fluorophenyl)ethyl]amino}methyl)-5-methoxyphenoxy]-3-(4-methyl-1-piperazinyl)-2-propanol]
Influenza virus titer, 10 μM ([1]; 10 μM): 2000 PFU/virus/ml
Influenza virus titer, 50 μM [1]: 1400 PFU/virus/ml

COc1ccc(CNCCCSC)c(OCC(O)CN2CCCCCCC2)c1 (stereo not shown) [Compound 18-14]
first experiment ([1]; 10 μM screen): 44000 PFU/ml
second experiment ([1]; 10 μM screen): 12000 PFU/ml
Avg PFU/ml ([1]; 10 μM screen): 28000 PFU/ml
Influenza virus titer, 10 μM ([1]; 10 μM): 4400 PFU/virus/ml
first experiment PFU/ml ([1]; 50 μM screen): 80000 PFU/ml
second experiment PFU/ml ([1]; 50 μM screen): 1100 PFU/ml
Avg PFU/ml ([1]; 50 μM screen): 40550 PFU/ml
Influenza virus titer, 50 μM [1]: 80000 PFU/virus/ml

COc1ccc(CNCCc2ccccc2F)c(OCC(O)CN2CCN(C)CC2)c1 (stereo not shown) [SILCS45]
SARS2 antiviral activity [2]: improved activity over SILCS41; also recorded: improved properties over SILCS46
Infection Data, Average, Mean percentage infection relative to DMSO control ([2]; n=4, 1 uM): 54.68%
Infection Data, Average, Mean percentage infection relative to DMSO control ([2]; n=4, 5 uM): −1.00%
Infection Data, Average, Mean percentage infection relative to DMSO control ([2]; n=4, 10 uM): 3.88%
Infection Data, Average, Mean percentage infection relative to DMSO control ([2]; n=4, 25 uM): −1.28%
Infection Data, Average, Mean percentage infection relative to DMSO control ([2]; n=4, 50 uM): 3.57%
Infection Data, Percentage Infection Relative to Appropriate DMSO Control ([2]; Exp 1 (SMW491), 1 uM): 102.92% and 112.49%
Infection Data, Percentage Infection Relative to Appropriate DMSO Control ([2]; Exp 1 (SMW491), 5 uM): −1.31% and −0.48%
Infection Data, Percentage Infection Relative to Appropriate DMSO Control ([2]; Exp 1 (SMW491), 10 uM): 0.12% and −3.09%
Infection Data, Percentage Infection Relative to Appropriate DMSO Control ([2]; Exp 1 (SMW491), 25 uM): −0.41% and −2.68%
Infection Data, Percentage Infection Relative to Appropriate DMSO Control ([2]; Exp 1 (SMW491), 50 uM): 1.17% and −2.53%
Infection Data, Percentage Infection Relative to Appropriate DMSO Control ([2]; Exp 2 (SMW492), 1 uM): 3.72% and −0.43%
Infection Data, Percentage Infection Relative to Appropriate DMSO Control ([2]; Exp 2 (SMW492), 5 uM): −2.43% and 0.22%
Infection Data, Percentage Infection Relative to Appropriate DMSO Control ([2]; Exp 2 (SMW492), 10 uM): 7.69% and 10.80%
Infection Data, Percentage Infection Relative to Appropriate DMSO Control ([2]; Exp 2 (SMW492), 25 uM): 0.00% and −2.03%
Infection Data, Percentage Infection Relative to Appropriate DMSO Control ([2]; Exp 2 (SMW492), 50 uM): 7.94% and 7.68%
Percentage Inhibition Average 1 μM [2]: 45.32%
Screening data (Relative infection to DMSO controls) Average 1 μM [2]: 54.68
Percentage Inhibition Average 5 μM [2]: 101.00%
Screening data (Relative infection to DMSO controls) Average 5 μM [2]: −1.00
Percentage Inhibition Average 10 μM [2]: 96.12%
Screening data (Relative infection to DMSO controls) Average 10 μM [2]: 3.88
Percentage Inhibition Average 25 μM [2]: 101.28%
Screening data (Relative infection to DMSO controls) Average 25 μM [2]: −1.28
Percentage Inhibition Average 50 μM [2]: 96.43%
Screening data (Relative infection to DMSO controls) Average 50 μM [2]: 3.57
Average (relative infection to DMSO over the 5 tested concentrations) [2]: 11.97
SARS2 antiviral activity ([2]; listed as D45): more potent than D46
Relative cell count to DMSO controls, Average 1 μM [3]: 116.96
Relative cell count to DMSO controls, Average 5 μM [3]: 123.47
Relative cell count to DMSO controls, Average 10 μM [3]: 131.34
Relative cell count to DMSO controls, Average 25 μM [3]: 119.79
Relative cell count to DMSO controls, Average 50 μM [3]: 125.46
Toxicity Data, Average, Mean percentage relative to DMSO control ([3]; n=4, 1 uM): 116.96%
Toxicity Data, Average, Mean percentage relative to DMSO control ([3]; n=4, 5 uM): 123.47%
Toxicity Data, Average, Mean percentage relative to DMSO control ([3]; n=4, 10 uM): 131.34%
Toxicity Data, Average, Mean percentage relative to DMSO control ([3]; n=4, 25 uM): 119.79%
Toxicity Data, Average, Mean percentage relative to DMSO control ([3]; n=4, 50 uM): 125.46%
Toxicity Data, Percentage Relative to Appropriate DMSO Control ([3]; Exp 1 (SMW491), 1 uM): 94% and 101%
Toxicity Data, Percentage Relative to Appropriate DMSO Control ([3]; Exp 1 (SMW491), 5 uM): 121% and 114%
Toxicity Data, Percentage Relative to Appropriate DMSO Control ([3]; Exp 1 (SMW491), 10 uM): 111% and 127%
Toxicity Data, Percentage Relative to Appropriate DMSO Control ([3]; Exp 1 (SMW491), 25 uM): 95% and 123%
Toxicity Data, Percentage Relative to Appropriate DMSO Control ([3]; Exp 1 (SMW491), 50 uM): 129% and 121%
Toxicity Data, Percentage Relative to Appropriate DMSO Control ([3]; Exp 2 (SMW492), 1 uM): 139% and 133%
Toxicity Data, Percentage Relative to Appropriate DMSO Control ([3]; Exp 2 (SMW492), 5 uM): 133% and 126%
Toxicity Data, Percentage Relative to Appropriate DMSO Control ([3]; Exp 2 (SMW492), 10 uM): 137% and 151%
Toxicity Data, Percentage Relative to Appropriate DMSO Control ([3]; Exp 2 (SMW492), 25 uM): 135% and 127%
Toxicity Data, Percentage Relative to Appropriate DMSO Control ([3]; Exp 2 (SMW492), 50 uM): 126%
Relative cell count to DMSO controls, Average (for correlation analysis) [3]: 123.40

COc1ccc(C2NC(=O)NC(C)=C2C(=O)NCC2CCCCC2)cc1OC (stereo not shown) [SILCS63]
Percentage Inhibition Average 1 μM [2]: 19.08%
Screening data (Relative infection to DMSO controls) Average 1 μM [2]: 80.92
Percentage Inhibition Average 5 μM [2]: 53.97%
Screening data (Relative infection to DMSO controls) Average 5 μM [2]: 46.03
Percentage Inhibition Average 10 μM [2]: 7.81%
Screening data (Relative infection to DMSO controls) Average 10 μM [2]: 92.19
Percentage Inhibition Average 25 μM [2]: −18.04%
Screening data (Relative infection to DMSO controls) Average 25 μM [2]: 118.04
Percentage Inhibition Average 50 μM [2]: −21.48%
Screening data (Relative infection to DMSO controls) Average 50 μM [2]: 121.48
Average (relative infection to DMSO over the 5 tested concentrations) [2]: 91.73
Relative cell count to DMSO controls, Average 1 μM [3]: 106.9
Relative cell count to DMSO controls, Average 5 μM [3]: 114.55
Relative cell count to DMSO controls, Average 10 μM [3]: 101.91
Relative cell count to DMSO controls, Average 25 μM [3]: 91.46
Relative cell count to DMSO controls, Average 50 μM [3]: 78.57
Relative cell count to DMSO controls, Average (for correlation analysis) [3]: 98.68
